Measurements as given in patent US12172983B2, “EGFR inhibitors” (Blueprint Medicines Corporation, priority 2019, dated 2024).
Read-outs that look alike come from different tables or passages of the source.

Key:
[1] = system: phosphorylation of EGFR (Tyr1068) in NCI-H1975 cell line that harbors the EGFR L858R T790M mutations; test: NCI-H1975 pEGFR AlphaLISA assay; assay type: cell-based; conditions: 4-5 hours incubation, read-out: Ext pEGFR H1975
Outline: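 NCI-H1975 cells (EGFR L858R/T790M) seeded overnight, then treated with compound for 4-5 h at 37 °C/5% CO2. After lysis, p-EGFR (Tyr1068) quantified by AlphaLISA SureFire Ultra with acceptor then donor beads; IC50 fitted from percent inhibition versus log concentration.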

[2] = biological target: T1, EGFR (L858R T790M C797S) (Homo sapiens, UniProt P00533, C797S/L858R/T790M); test: Biochemical EGFR inhibition assay (Caliper mobility shift), EGFR LRTMCS mutant; conditions: inhibitory activity against EGFR LRTMCS mutant; apparent IC50; read-out: Ext Enz LRTMCS
T1 construct: purchased SignalChem E10-122VG
T1 sequence (P00533 25-1210 T790M/C797S/L858R): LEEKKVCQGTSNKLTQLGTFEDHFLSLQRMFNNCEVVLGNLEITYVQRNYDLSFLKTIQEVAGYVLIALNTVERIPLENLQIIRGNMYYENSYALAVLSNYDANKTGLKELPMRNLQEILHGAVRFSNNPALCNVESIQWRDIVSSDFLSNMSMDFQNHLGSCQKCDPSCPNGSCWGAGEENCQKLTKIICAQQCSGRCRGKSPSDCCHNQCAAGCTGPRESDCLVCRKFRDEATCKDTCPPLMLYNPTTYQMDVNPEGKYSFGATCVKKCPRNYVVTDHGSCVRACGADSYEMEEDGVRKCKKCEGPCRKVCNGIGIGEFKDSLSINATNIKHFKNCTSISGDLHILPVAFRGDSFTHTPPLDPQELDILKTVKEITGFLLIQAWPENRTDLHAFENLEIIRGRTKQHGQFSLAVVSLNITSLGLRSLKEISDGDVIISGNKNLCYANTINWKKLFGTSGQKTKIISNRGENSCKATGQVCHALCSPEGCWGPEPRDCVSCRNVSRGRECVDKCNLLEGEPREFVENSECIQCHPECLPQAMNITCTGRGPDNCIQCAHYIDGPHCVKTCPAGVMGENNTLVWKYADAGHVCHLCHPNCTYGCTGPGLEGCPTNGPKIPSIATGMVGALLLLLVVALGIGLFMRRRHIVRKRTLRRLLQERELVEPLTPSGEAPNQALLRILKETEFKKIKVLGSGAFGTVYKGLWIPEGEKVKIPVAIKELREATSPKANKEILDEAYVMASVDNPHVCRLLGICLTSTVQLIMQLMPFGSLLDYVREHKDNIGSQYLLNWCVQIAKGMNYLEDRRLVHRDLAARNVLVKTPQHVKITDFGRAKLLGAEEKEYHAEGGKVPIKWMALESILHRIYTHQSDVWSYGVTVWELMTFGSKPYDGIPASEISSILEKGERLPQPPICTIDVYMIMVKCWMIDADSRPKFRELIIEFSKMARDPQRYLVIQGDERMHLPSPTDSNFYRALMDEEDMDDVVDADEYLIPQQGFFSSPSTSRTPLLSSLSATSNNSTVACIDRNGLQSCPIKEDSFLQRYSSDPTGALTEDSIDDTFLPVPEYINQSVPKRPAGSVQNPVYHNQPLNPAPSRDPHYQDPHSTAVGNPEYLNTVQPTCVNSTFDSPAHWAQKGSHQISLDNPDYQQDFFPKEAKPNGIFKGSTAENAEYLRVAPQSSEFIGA
Outline: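 Kinase reactions proceed at 25° C. to 10%–20% conversion of total peptide, are terminated with 35 mM EDTA, and the phosphopeptide is resolved from substrate by electrophoretic mobility shift. Apparent IC50 values come from plotting percent activity against log compound concentration.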

[3] = inhibition of phosphorylation of mutant EGFR in NCI-H1975 cells
[4] = Homo sapiens, NCI-H1975, inhibition of phosphorylation of mutant EGFR in NCI-H1975 cells

SMILES | IC50 [1, 3] [nM] | IC50 [2] [nM] | IC50 [1, 4] [nM]
[2H]C([2H])([2H])O[C@H]1CCN(c2nccc(Nc3cc4c(C(C)C)cnc(N5C[C@H](CS(C)(=O)=O)[C@H]5C)c4cn3)n2)C[C@H]1F (single isomer, unassigned) [Compound 285] |  | ≤ 15 | ≤ 10
[2H]C([2H])([2H])O[C@H]1CCN(c2nccc(Nc3cc4c(C(C)C)ccc(N5CC(CS(C)(=O)=O)C5)c4cn3)n2)CC1(F)F (single isomer, unassigned) [Compound 287, N-{2-[(4R)-3,3-difluoro-4-(^2H3)methoxypiperidin-1-yl]pyrimidin-4-yl}-8-[3-(methanesulfonylmethyl)azetidin-1-yl]-5-(propan-2-yl)isoquinolin-3-amine or N-{2-[(4S)-3,3-difluoro-4-(^2H3)methoxypiperidin-1-yl]pyrimidin-4-yl}-8-[3-(methanesulfonylmethyl)azetidin-1-yl]-5-(propan-2-yl)isoquinolin-3-amine] | 10.1 to 20 | 20.1 to 30 | 
CO[C@@H]1[C@H](O)CN(c2nccc(Nc3cc4c(C(C)C)ccc(N5CC(CS(C)(=O)=O)C5)c4cn3)n2)CC1(F)F (single isomer, unassigned) [Compound 291, (3R,4R)-5,5-difluoro-1-[4-({8-[3-(methanesulfonylmethyl)azetidin-1-yl]-5-(propan-2-yl)isoquinolin-3-yl}amino)pyrimidin-2-yl]-4-methoxypiperidin-3-ol or (3S,4S)-5,5-difluoro-1-[4-({8-[3-(methanesulfonylmethyl)azetidin-1-yl]-5-(propan-2-yl)isoquinolin-3-yl}amino)pyrimidin-2-yl]-4-methoxypiperidin-3-ol] | ≤ 10 | ≤ 15 | 

More lines, now with the values ahead:

IC50 [1, 3] [nM] | IC50 [2] [nM] | IC50 [1, 4] [nM] | SMILES
30.1 to 50 | 15.1 to 20 |  | CCS(=N)(=O)CC1CN(c2ccc(C(C)C)c3cc(Nc4ccnc(N5CCC(OC)C(F)C5)n4)ncc23)C1 (single isomer, unassigned) [Compound 275, (S)-ethyl({1-[3-({2-[(3R,4S)-3-fluoro-4-methoxypiperidin-1-yl]pyrimidin-4-yl}amino)-5-(propan-2-yl)isoquinolin-8-yl]azetidin-3-yl}methyl)imino-λ^6-sulfanone or (R)-ethyl({1-[3-({2-[(3R,4S)-3-fluoro-4-methoxypiperidin-1-yl]pyrimidin-4-yl}amino)-5-(propan-2-yl)isoquinolin-8-yl]azetidin-3-yl}methyl)imino-λ^6-sulfanone]
 | ≤ 15 | 10.1 to 20 | CCS(=O)(=O)CC1CN(c2ccc(C(C)C)c3cc(Nc4ccnc(N5CC[C@](C)(O)[C@H](F)C5)n4)ncc23)C1 (single isomer, unassigned) [Compound 277]
 | ≤ 15 | ≤ 10 | [2H]C([2H])([2H])O[C@@H]1CCN(c2nccc(Nc3cc4c(C(C)C)cnc(N5C[C@H](CS(C)(=O)=O)[C@H]5C)c4cn3)n2)C[C@@H]1F (single isomer, unassigned) [Compound 284]
 | 15.1 to 20 | 10.1 to 20 | [2H]C([2H])([2H])O[C@H]1CCN(c2nccc(Nc3cc4c(C(C)C)ccc(N5CC(CS(C)(=O)=O)C5)c4cn3)n2)CC1(F)F (single isomer, unassigned) [Compound 286, N-{2-[(4S)-3,3-difluoro-4-(^2H3)methoxypiperidin-1-yl]pyrimidin-4-yl}-8-[3-(methanesulfonylmethyl)azetidin-1-yl]-5-(propan-2-yl)isoquinolin-3-amine or N-{2-[(4R)-3,3-difluoro-4-(^2H3)methoxypiperidin-1-yl]pyrimidin-4-yl}-8-[3-(methanesulfonylmethyl)azetidin-1-yl]-5-(propan-2-yl)isoquinolin-3-amine]
